Measurements taken from ChEMBL document CHEMBL1135360, “The design and synthesis of a novel series of indole derived selective ET(A) antagonists” (Bioorg Med Chem Lett, 2002).
pIC50: −log10 of the molar value.

Columns and labels:
Endothelin-1 receptor = target: T1, Endothelin-1 receptor (Homo sapiens, UniProt P25101); test: Displacement of [125I]-labeled ET-1 from human cloned endothelin A (ETA) receptor
T1 sequence (P25101 whole entry): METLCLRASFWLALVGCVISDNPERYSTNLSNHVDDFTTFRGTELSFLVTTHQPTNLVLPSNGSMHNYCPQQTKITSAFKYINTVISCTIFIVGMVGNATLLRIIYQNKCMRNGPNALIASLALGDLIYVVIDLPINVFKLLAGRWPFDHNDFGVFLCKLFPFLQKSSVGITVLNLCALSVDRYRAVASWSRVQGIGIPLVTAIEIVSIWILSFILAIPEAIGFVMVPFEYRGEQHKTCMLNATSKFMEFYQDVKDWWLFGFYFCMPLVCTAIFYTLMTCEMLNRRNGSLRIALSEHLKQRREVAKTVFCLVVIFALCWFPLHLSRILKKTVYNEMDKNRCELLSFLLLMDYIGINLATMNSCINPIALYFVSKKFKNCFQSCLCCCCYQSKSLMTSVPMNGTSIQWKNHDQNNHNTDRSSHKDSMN

[1] = target: T2, Endothelin receptor type B (Homo sapiens, UniProt P24530); test: Binding affinity towards human cloned endothelin B receptor by [125I]ET1 displacement.
T2 sequence (P24530 whole entry): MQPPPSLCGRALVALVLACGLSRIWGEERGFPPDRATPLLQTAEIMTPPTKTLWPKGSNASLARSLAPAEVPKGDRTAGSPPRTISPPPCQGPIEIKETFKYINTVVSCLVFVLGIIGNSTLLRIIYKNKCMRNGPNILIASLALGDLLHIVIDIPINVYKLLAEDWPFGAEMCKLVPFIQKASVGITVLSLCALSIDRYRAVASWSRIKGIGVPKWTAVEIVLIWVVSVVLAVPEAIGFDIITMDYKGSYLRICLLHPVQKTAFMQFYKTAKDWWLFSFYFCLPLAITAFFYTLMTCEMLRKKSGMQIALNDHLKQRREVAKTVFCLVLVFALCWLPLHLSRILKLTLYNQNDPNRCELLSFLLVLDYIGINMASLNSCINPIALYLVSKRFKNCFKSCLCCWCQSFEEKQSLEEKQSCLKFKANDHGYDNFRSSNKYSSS

[2] = target: Endothelin receptor, ET-A/ET-B (Homo sapiens) (UniProt P24530+P25101); test: Ratio of binding affinity at Endothelin-A receptors compared to Endothelin-B receptors.; assay type: protein assay

SMILES	pIC50 (Endothelin-1 receptor)	pIC50 [1]	Ratio [2]
Cn1cc(C(C(=O)NS(=O)(=O)c2ccccc2C(=O)O)c2ccc3c(c2)OCO3)c2ccc(C(N)=O)cc21 (stereo unspecified)	8.51	6.07	272
Cc1ccc(S(=O)(=O)NC(=O)C(c2ccc3c(c2)OCO3)c2cn(C)c3cc(C(N)=O)ccc23)cc1 (stereo unspecified)	8.74	6.11	430
Cc1ccccc1S(=O)(=O)NC(=O)C(c1ccc2c(c1)OCO2)c1cn(C)c2cc(C(N)=O)ccc12 (stereo unspecified)	8.28	5.98	203
Cn1cc(C(C(=O)NS(=O)(=O)c2ccc(Cl)cc2)c2ccc3c(c2)OCO3)c2ccc(C(N)=O)cc21 (stereo unspecified)	8.12	5.96	146
Cn1cc(C(C(=O)NS(=O)(=O)c2ccc(C(F)(F)F)cc2)c2ccc3c(c2)OCO3)c2ccc(C(N)=O)cc21 (stereo unspecified)	8.19	6.64	35
Cn1cc(C(C(=O)NS(=O)(=O)c2ccccc2)c2ccc3c(c2)OCO3)c2ccc(C(N)=O)cc21 (stereo unspecified)	7.92	5.59	184
CCOc1cc(C)ccc1S(=O)(=O)NC(=O)C(c1ccc2c(c1)OCO2)c1cn(C)c2cc(C(N)=O)ccc12 (stereo unspecified)	9.26	6.40	722
COc1cc(C)ccc1S(=O)(=O)NC(=O)C(c1ccc2c(c1)OCO2)c1cn(C)c2cc(C(N)=O)ccc12 (stereo unspecified)	8.96	6.52	275
COc1cc(OC)nc(O[C@H](C(=O)O)C(OC)(c2ccccc2)c2ccccc2)n1 [DARUSENTAN]	9.10	7.80	–
COc1ccccc1S(=O)(=O)NC(=O)C(c1ccc2c(c1)OCO2)c1cn(C)c2cc(C(N)=O)ccc12 (stereo unspecified)	8.30	6.51	62
COc1ccc(S(=O)(=O)NC(=O)C(c2ccc3c(c2)OCO3)c2cn(C)c3cc(C(N)=O)ccc23)cc1 (stereo unspecified)	8.55	7.03	34

Next, values leading:

pIC50 (Endothelin-1 receptor)	pIC50 [1]	Ratio [2]	SMILES
7.51	–	–	CC(C)c1ccc(S(=O)(=O)NC(=O)C(c2ccc3c(c2)OCO3)c2c[nH]c3cc(C(=O)O)ccc23)cc1 (stereo unspecified)
7.52	6.68	7	CCn1cc(C(C(=O)NS(=O)(=O)c2ccc(C(C)C)cc2)c2ccc3c(c2)OCO3)c2ccc(C(=O)NC)cc21 (stereo unspecified)
7.49	5.66	68.8	CCn1cc(C(C(=O)NS(=O)(=O)c2ccc(C(C)C)cc2)c2ccc3c(c2)OCO3)c2ccc(C(=O)O)cc21 (stereo unspecified)
7.00	–	–	COC(=O)c1ccc2c(C(C(=O)NS(=O)(=O)c3ccc(C(C)C)cc3)c3ccc4c(c3)OCO4)cn(C)c2c1 (stereo unspecified)
7.21	–	–	CC(C)c1ccc(S(=O)(=O)NC(=O)C(c2ccc3c(c2)OCO3)c2cn(C)c3cc(C#N)ccc23)cc1 (stereo unspecified)
7.42	6.69	5.4	CC(C)c1ccc(S(=O)(=O)NC(=O)C(c2ccc3c(c2)OCO3)c2cn(C)c3cc(CN)ccc23)cc1 (stereo unspecified)
7.66	5.82	68.2	CC(C)c1ccc(S(=O)(=O)NC(=O)C(c2ccc3c(c2)OCO3)c2cn(C)c3cc(C(=O)O)ccc23)cc1 (stereo unspecified)
7.46	–	–	CC(C)c1ccc(S(=O)(=O)NC(=O)C(c2ccc3c(c2)OCO3)c2cn(C)c3cc(-c4nn[nH]n4)ccc23)cc1 (stereo unspecified)
8.46	7.17	19.7	CCn1cc(C(C(=O)NS(=O)(=O)c2ccc(C(C)C)cc2)c2ccc3c(c2)OCO3)c2ccc(C(N)=O)cc21 (stereo unspecified)
6.68	–	–	CCn1cc(C(C(=O)NS(=O)(=O)c2ccc(C(C)C)cc2)c2ccc3c(c2)OCO3)c2ccc(C(=O)OC)cc21 (stereo unspecified)
7.14	6.32	6.6	CCn1cc(C(C(=O)NS(=O)(=O)c2ccc(C(C)C)cc2)c2ccc3c(c2)OCO3)c2ccc(C(=O)N(C)C)cc21 (stereo unspecified)
8.64	7.47	14.8	CC(C)c1ccc(S(=O)(=O)NC(=O)C(c2ccc3c(c2)OCO3)c2cn(C)c3cc(C(N)=O)ccc23)cc1 (stereo unspecified)
7.72	6.35	23.7	CC(C)c1ccc(S(=O)(=O)NC(=O)C(c2ccc3c(c2)OCO3)c2cn(C)c3cc(CO)ccc23)cc1 (stereo unspecified)
